Source: ChEMBL document CHEMBL1201862, “PubChem BioAssay data set” (2004)
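Briefly, cells in 96-well plates were exposed to five compound concentrations for 48 h, and endpoints were estimated by linear interpolation. GI50 is the concentration that inhibits growth by half.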 Activity calls are given as the source filed them. Rule as the data show it: active = GI50 up to about 1.1 µM and inactive = higher.

Assays:
Test in all cases: NCI anticancer screen, dose series, 48 h
[1] = system: HOP-62
[2] = system: KM12
[3] = system: NCI-H226
[4] = system: Hs-578T
[5] = system: OVCAR-5
[6] = system: MDA-MB-435
[7] = system: U-251
[8] = system: DU-145
[9] = system: A498
[10] = system: SNB-75
[11] = system: A549
[12] = system: SK-OV-3
[13] = system: UACC-62
[14] = system: NCI/ADR-RES
[15] = system: SNB-19
[16] = system: NCI-H460
[17] = system: SK-MEL-2
[18] = system: SF-295
[19] = system: SF-539
[20] = system: OVCAR-4
[21] = system: SN12C
[22] = system: MCF7
[23] = system: NCI-H23
[24] = system: SW-620
[25] = system: UO-31
[26] = system: HCC 2998
[27] = system: COLO 205
[28] = system: M14
[29] = system: HT-29
[30] = system: HCT-116
[31] = system: HOP-92
[32] = system: IGROV-1
[33] = system: MOLT-4
[34] = system: HCT-15
[35] = system: PC-3
[36] = system: ACHN
[37] = system: RPMI-8226
[38] = system: Malme-3M
[39] = system: SF-268
[40] = system: SK-MEL-28
[41] = system: TK-10
[42] = system: NCI-H522
[43] = system: BT-549
[44] = system: CAKI-1
[45] = system: MDA-MB-231
[46] = system: 786-0
[47] = system: EKVX
[48] = system: MDA-N
[49] = system: K562
[50] = system: SK-MEL-5
[51] = system: RXF 393
[52] = system: UACC-257
[53] = system: LOX IMVI
[54] = system: OVCAR-3
[55] = system: HL-60
[56] = system: OVCAR-8
[57] = system: CCRF-CEM

With `C#CCn1c(=O)c(I)cn(/C(=C\C(=O)OCC)C(=O)OCC)c1=O` the GI50 [1] was 17.4 µM (inactive), the GI50 [2] was 17.3 µM (inactive) and the GI50 [3] was 17.9 µM (inactive). For the same compound, the GI50 [4] was 49.8 µM (inactive), the GI50 [5] was 20.6 µM (inactive) and the GI50 [6] was 17.1 µM (inactive). The GI50 [7] was 15.7 µM (inactive), the GI50 [8] was 17.5 µM (inactive) and the GI50 [9] was 16.7 µM (inactive). For the same compound, the GI50 [10] was 17.1 µM (inactive), the GI50 [11] was 34.8 µM (inactive) and the GI50 [12] was 17.9 µM (inactive). The GI50 [13] was 16.9 µM (inactive), the GI50 [14] was 26.1 µM (inactive) and the GI50 [15] was 26.9 µM (inactive). For the same compound, the GI50 [16] was 20.3 µM (inactive), the GI50 [17] was 18.9 µM (inactive) and the GI50 [18] was 18.7 µM (inactive). The GI50 [19] was 18.4 µM (inactive).

`Oc1c(NCn2nc(CCCCCCCCc3nn(CNc4ccc5ccccc5c4O)c(=S)o3)oc2=S)ccc2ccccc12` was tested, and the GI50 [20] was 76.2 µM (inactive), the GI50 [1] was 94.2 µM (inactive) and the GI50 [2] was 28.2 µM (inactive). The GI50 [21] was > 100 µM (inactive), the GI50 [3] was > 100 µM (inactive) and the GI50 [22] was 67.6 µM (inactive). The GI50 [23] was 97.5 µM (inactive), the GI50 [24] was 35.6 µM (inactive) and the GI50 [25] was 98.2 µM (inactive). For the same compound, the GI50 [26] was > 100 µM (inactive), the GI50 [27] was > 100 µM (inactive) and the GI50 [28] was 34.8 µM (inactive). The GI50 [29] was 73.6 µM (inactive), the GI50 [30] was 11.9 µM (inactive) and the GI50 [31] was > 100 µM (inactive). For the same compound, the GI50 [32] was 50.2 µM (inactive), the GI50 [33] was > 100 µM (inactive) and the GI50 [34] was 35.6 µM. For the same compound, the GI50 [5] was 43.9 µM (inactive), the GI50 [35] was > 100 µM (inactive) and the GI50 [6] was 12.5 µM (inactive). The GI50 [36] was > 100 µM (inactive), the GI50 [7] was 86.5 µM (inactive) and the GI50 [8] was > 100 µM (inactive). For the same compound, the GI50 [37] was 46.8 µM (inactive), the GI50 [38] was 75.2 µM (inactive) and the GI50 [9] was > 100 µM (inactive). For the same compound, the GI50 [39] was > 100 µM (inactive), the GI50 [40] was 49.7 µM (inactive) and the GI50 [10] was > 100 µM (inactive). For the same compound, the GI50 [41] was 68.1 µM (inactive), the GI50 [42] was 49 µM (inactive) and the GI50 [43] was > 100 µM (inactive). For the same compound, the GI50 [11] was 44.4 µM (inactive), the GI50 [12] was > 100 µM (inactive) and the GI50 [44] was > 100 µM (inactive). The GI50 [45] was 20 µM (inactive), the GI50 [13] was 68.4 µM (inactive) and the GI50 [14] was 44.5 µM (inactive). For the same compound, the GI50 [15] was > 100 µM (inactive), the GI50 [16] was > 100 µM (inactive) and the GI50 [46] was 63.2 µM (inactive). The GI50 [47] was > 100 µM (inactive), the GI50 [48] was 17.2 µM (inactive) and the GI50 [49] was > 100 µM (inactive). The GI50 [17] was 42.8 µM (inactive), the GI50 [18] was 33.7 µM (inactive) and the GI50 [50] was 30.4 µM (inactive). For the same compound, the GI50 [51] was 30.1 µM (inactive) and the GI50 [52] was 75.5 µM (inactive).

With `COc1cc(CNc2nc3cc(N)cc(N)c3nc2-c2ccccc2)cc(OC)c1` the GI50 [37] was 2.2 µM (inactive) and the GI50 [52] was 26.1 µM (inactive).

In the case of `CNc1nnc(CNc2ccc(-c3nnc(NC)n3N)cc2)n1N`, the GI50 [20] is reported as > 100 µM (inactive), the GI50 [1] is reported as > 100 µM (inactive) and the GI50 [2] is reported as > 100 µM (inactive). The GI50 [21] was > 100 µM (inactive), the GI50 [3] was > 100 µM (inactive) and the GI50 [22] was > 100 µM (inactive). For the same compound, the GI50 [53] was > 100 µM (inactive), the GI50 [23] was > 100 µM (inactive) and the GI50 [24] was > 100 µM (inactive). For the same compound, the GI50 [25] was > 100 µM (inactive), the GI50 [26] was < 0.01 µM (active) and the GI50 [27] was > 100 µM (inactive). For the same compound, the GI50 [28] was > 100 µM (inactive), the GI50 [29] was > 100 µM (inactive) and the GI50 [54] was > 100 µM (inactive). The GI50 [30] was > 100 µM (inactive), the GI50 [31] was > 100 µM (inactive) and the GI50 [32] was > 100 µM (inactive). The GI50 [33] was > 100 µM (inactive), the GI50 [55] was 39.5 µM (inactive) and the GI50 [34] was over 100 µM. The GI50 [5] was > 100 µM (inactive), the GI50 [35] was > 100 µM (inactive) and the GI50 [6] was > 100 µM (inactive). For the same compound, the GI50 [36] was > 100 µM (inactive), the GI50 [7] was > 100 µM (inactive) and the GI50 [8] was > 100 µM (inactive). For the same compound, the GI50 [9] was > 100 µM (inactive), the GI50 [39] was > 100 µM (inactive) and the GI50 [40] was > 100 µM (inactive). For the same compound, the GI50 [10] was > 100 µM (inactive), the GI50 [41] was > 100 µM (inactive) and the GI50 [43] was 12.4 µM (inactive). For the same compound, the GI50 [11] was > 100 µM (inactive), the GI50 [12] was > 100 µM (inactive) and the GI50 [44] was > 100 µM (inactive). For the same compound, the GI50 [45] was > 100 µM (inactive), the GI50 [14] was > 100 µM (inactive) and the GI50 [15] was > 100 µM (inactive). For the same compound, the GI50 [16] was > 100 µM (inactive), the GI50 [46] was > 100 µM (inactive) and the GI50 [47] was > 100 µM (inactive). The GI50 [56] was > 100 µM (inactive), the GI50 [48] was > 100 µM (inactive) and the GI50 [49] was > 100 µM (inactive). For the same compound, the GI50 [17] was > 100 µM (inactive), the GI50 [57] was > 100 µM (inactive) and the GI50 [18] was > 100 µM (inactive). The GI50 [50] was > 100 µM (inactive), the GI50 [51] was > 100 µM (inactive) and the GI50 [52] was > 100 µM (inactive). For the same compound, the GI50 [19] was > 100 µM (inactive).
